# Results taken from ChEMBL document CHEMBL2346642, “Antioxidant and antiproliferative activity of glycosides obtained by biotransformation of xanthohumol” (Bioorg Med Chem Lett, 2013).
# Legend:
# PC-3 = experiment: Antiproliferative activity against human PC3 cells after 72 hrs by SRB assay; assay type: functional, cell-based
# MCF7 = experiment: Antiproliferative activity against human MCF7 cells after 72 hrs by SRB assay; assay type: functional, cell-based; conditions: MCF7, 72 h
# HT-29 = experiment: Antiproliferative activity against human HT-29 cells after 72 hrs by SRB assay; assay type: functional, cell-based
# [1] = system: Radical scavenging activity; experiment: Antioxidant activity assessed as DPPH radical scavenging activity by UV-vis spectrophotometry analysis; assay type: functional
# [2] = Homo sapiens, PC-3, 72 h, read-out: IC50
# [3] = Homo sapiens, HT-29, 72 h, read-out: IC50
Structure (SMILES),IC50 (PC-3; [2]),IC50 (MCF7),IC50 (HT-29; [3]),IC50 [1],IC50 (PC-3; pc-3),IC50 (HT-29; ht-29)
O=C1O[C@H]([C@@H](O)CO)C(O)=C1O [ASCORBIC ACID],–,–,–,520 nM,–,–
COc1cc(O[C@@H]2O[C@H](CO)[C@@H](O)[C@H](O)[C@H]2O)c(CC=C(C)C)c2c1C(=O)C[C@@H](c1ccc(O)cc1)O2,–,146 µM,–,6130 nM,Not Active,Not Active
COc1cc(O)c(CC=C(C)C)c(O)c1C(=O)/C=C/c1ccc(O)cc1 [XANTHOHUMOL],–,–,–,1980 nM,–,–

# The next lines start with the values.
IC50 (PC-3; [2]),IC50 (MCF7),IC50 (HT-29; [3]),IC50 [1],IC50 (PC-3; pc-3),IC50 (HT-29; ht-29),Structure (SMILES)
47.9 µM,19.9 µM,51.8 µM,9060 nM,–,–,COc1cc(O[C@@H]2O[C@H](CO)[C@@H](OC)[C@H](O)[C@H]2O)c(CC=C(C)C)c(O)c1C(=O)/C=C/c1ccc(O)cc1
58.1 µM,51.4 µM,63.6 µM,770 nM,–,–,COc1cc(O[C@@H]2O[C@H](CO)[C@@H](O)[C@H](O)[C@H]2O)c(CC=C(C)C)c(O)c1C(=O)/C=C/c1ccc(O)cc1 [XANTHOHUMOL-4'-O-BETA-D-GLUCOPYRANOSIDE]
